# Experimental data published in ChEMBL document CHEMBL4402596, “Pyridine-Embedded Phenothiazinium Dyes as Lysosome-Targeted Photosensitizers for Highly Efficient Photodynamic Antitumor Therapy” (J Med Chem, 2020).
# Calls of active or inactive are those of the source. The rule behind the calls is not given here.
# How the values were obtained:
# [1] = system: HT-29; test: Ratio of IC50 for cytotoxicity against human HT-29 cells in dark to IC50 for cytotoxicity against human HT-29 cells in light at 3.2J/cm2
# [2] = system: HT-29; test: Antitumor activity against human HT-29 cells xenografted in BALB/c mouse assessed as reduction in tumor growth at 2 mg/kg, iv after 2 hrs irradiated with light and measured on day 5; type: functional, organism-based
# [3] = system: HT-29; test: Antitumor activity against human HT-29 cells xenografted in BALB/c mouse assessed as reduction in tumor volume at 2 mg/kg, iv after 2 hrs irradiated with light and measured on day 5; type: functional, organism-based
# [4] = system: A549; test: Ratio of IC50 for cytotoxicity against human A549 cells in dark to IC50 for cytotoxicity against human A549 cells in light at 3.2J/cm2
# [5] = system: HT-29; test: Induction of morphological changes in nucleus of human HT-29 cells at 0.5 uM incubated in dark for 1 hr followed by irradiated with LED light for 30 sec and measured after 18 hrs by Hoechst 33342 staining based fluorescence microscopy; type: functional, cell-based
# [6] = system: MCF7; test: Ratio of IC50 for cytotoxicity against human MCF7 cells in dark to IC50 for cytotoxicity against human MCF7 cells in light at 3.2J/cm2
# [7] = Toxicity in BALB/c mouse xenografted with human HT-29 cells assessed as damage on liver at 2 mg/kg, iv after 2 hrs irradiated with light and measured on day 24; type: organism-based; settings: in vivo
# [8] = system: MCF7; test: Cytotoxicity against human MCF7 cells assessed as reduction in cell viability incubated for 24 hrs in dark by MTT assay; type: cell-based; settings: MCF7, 24 h
# [9] = system: HT-29; test: Cytotoxicity against human HT-29 cells assessed as reduction in cell viability preincubated for 1 hr followed by light irradiation at 3.2 J/cm2 for 10 to 180 secs and measured after 24 hrs by MTT assay; type: functional, cell-based
# [10] = Toxicity in BALB/c mouse xenografted with human HT-29 cells assessed as damage on lung at 2 mg/kg, iv after 2 hrs irradiated with light and measured on day 24; type: organism-based; settings: in vivo
# [11] = system: A549; test: Cytotoxicity against human A549 cells assessed as reduction in cell viability incubated for 1 hr followed by light irradiation at 3.2 J/cm2 for 30 sec and measured after 24 hrs by MTT assay; type: functional, cell-based; settings: A549, light or radiation study
# [12] = Toxicity in BALB/c mouse xenografted with human HT-29 cells assessed as damage in spleen at 2 mg/kg, iv after 2 hrs irradiated with light and measured on day 24; type: organism-based; settings: in vivo
# [13] = system: HT-29; test: Cytotoxicity against human HT-29 cells assessed as reduction in cell viability preincubated for 1 hr followed by light irradiation at 3.2 J/cm2 for 30 sec and measured after 24 hrs by MTT assay; type: functional, cell-based; settings: HT-29, light or radiation study
# [14] = system: HT-29; test: Antitumor activity against human HT-29 cells xenografted in BALB/c mouse assessed as reduction in tumor volume at 2 mg/kg, iv after 2 hrs irradiated with light and measured on day 24; type: functional, organism-based
# [15] = Drug localization in lysosome of human WI38 cells at 0.5 uM measured after 1 hr by LAMP1-GFP based confocal laser scanning microscopy; type: ADME, subcellular; settings: wi-38, 1 h
# [16] = system: WI-38; test: Cytotoxicity against human WI38 cells assessed as reduction in cell viability incubated for 24 hrs in dark by MTT assay; type: cell-based; settings: WI-38, 24 h
# [17] = Drug localization in mitochondria of human Ht-29 cells at 0.5 uM measured after 1 hr by Mito-GFP based confocal laser scanning microscopy; type: ADME; settings: ht-29, 1 h
# [18] = system: HT-29; test: Induction of morphological changes in nucleus of human HT-29 cells at 0.5 uM incubated for 18 hrs in dark by Hoechst 33342 staining based fluorescence microscopy; type: cell-based; settings: ht-29, 18 h
# [19] = Toxicity in BALB/c mouse xenografted with human HT-29 cells assessed as damage in kidney at 2 mg/kg, iv after 2 hrs irradiated with light and measured on day 24; type: organism-based; settings: in vivo
# [20] = Induction of singlet oxygen generation in EtOH assessed as singlet oxygen quantum yield irradiated with 12.8 J light for 2 mins by DPBF-based assay; type: functional
# [21] = system: A549; test: Cytotoxicity against human A549 cells assessed as reduction in cell viability incubated for 24 hrs in dark by MTT assay; type: cell-based; settings: A549, 24 h
# [22] = system: HT-29; test: Cytotoxicity against human HT-29 cells assessed as reduction in cell viability incubated for 24 hrs in dark by MTT assay; type: cell-based; settings: HT-29, 24 h
# [23] = Drug localization in lysosome of human HT-29 cells at 0.5 uM measured after 1 hr by LAMP1-GFP based confocal laser scanning microscopy; type: ADME, subcellular; settings: ht-29, 1 h
# [24] = Drug uptake in nucleus of human HT-29 cells at 0.5 uM incubated for 5 hrs by Hoechst 33342 staining based fluorescence microscopy; type: ADME, cell-based; settings: ht-29, 5 h
# [25] = Clearance in Sprague-Dawley rat at 2 mg/kg, iv measured upto 24 hrs by fluorescence based assay; type: ADME, organism-based; settings: in vivo
# [26] = MRT (0 to infinity) in Sprague-Dawley rat at 2 mg/kg, iv measured upto 24 hrs by fluorescence based assay; type: ADME, organism-based; settings: in vivo
# [27] = AUC (0 to t) in Sprague-Dawley rat at 2 mg/kg, iv measured upto 24 hrs by fluorescence based assay; type: ADME, organism-based; settings: in vivo
# [28] = AUC (0 to infinity) in Sprague-Dawley rat at 2 mg/kg, iv measured upto 24 hrs by fluorescence based assay; type: ADME, organism-based; parameters: dose 2 mg/kg, route intravenous, time infinity; settings: in vivo
# [29] = Drug localization in mitochondria of human WI38 cells at 0.5 uM measured after 1 hr by Mito-GFP based confocal laser scanning microscopy; type: ADME; settings: wi-38, 1 h
# [30] = system: MCF7; test: Cytotoxicity against human MCF7 cells assessed as reduction in cell viability incubated for 1 hr followed by light irradiation for 30 sec at 3.2 J/cm2 and measured after 24 hrs by MTT assay; type: functional, cell-based; settings: MCF7, light or radiation study
# [31] = Half life in Sprague-Dawley rat at 2 mg/kg, iv measured upto 24 hrs by fluorescence based assay; type: ADME, organism-based; settings: in vivo
# [32] = Drug localization in lysosome of human HT-29 cells at 0.5 uM measured after 1 hr in dark by Lyso-tracker based confocal laser scanning microscopy; type: ADME, subcellular; settings: ht-29, 1 h
# [33] = system: HT-29; test: Induction of ROS generation in human HT-29 cells at 0.5 uM incubated for 0.5 hrs followed by DCFH-DA addition for 0.5 hrs then irradiated with light for 30 sec and measured after 15 mins by flow cytometry; type: functional, cell-based
# [34] = Photostability of compound assessed as decrease in rate of photo decomposition at 5 uM irradiated with LED light (630 nm, 106 mW cm'-2) upto 12 mins by UV spectrophotometry
# [35] = system: HT-29; test: Potency index, ratio of IC50 of methylene blue to IC50 of compound for cytotoxicity against human HT-29 cells assessed as reduction in cell viability incubated for 1 hr followed by light irradiation at 3.2 J/cm2 for 30 sec and measured after 24 hrs by MTT assay; type: functional
# [36] = Toxicity in BALB/c mouse xenografted with human HT-29 cells assessed as damage on heart tissue at 2 mg/kg, iv after 2 hrs irradiated with light and measured on day 24; type: organism-based; settings: in vivo
# [37] = Cmax in Sprague-Dawley rat at 2 mg/kg, iv measured upto 24 hrs by fluorescence based assay; type: ADME, organism-based; parameters: dose 2 mg/kg, route intravenous; settings: in vivo
compound,measurement,setting,value
CCCNc1cc2[s+]c3cc(N(CC)CC)ccc3nc2c2ccc(C)nc12.[Cl-],Ratio IC50,[1],53.8
same,Activity,[2],Active
same,Activity,[3],Active
same,Ratio IC50,[4],9.1
same,Activity,[5],Active
same,Ratio IC50,[6],5.1
same,Activity,[7],Non-Toxic
same,IC50,[8],1.9 µM
same,Activity,[9],Active
same,Activity,[10],Non-Toxic
same,IC50,[11],0.34 µM
same,Activity,[12],Non-Toxic
same,IC50,[13],0.039 µM
same,Activity,[14],Active
same,Drug uptake,[15],Active
same,IC50,[16],> 10 µM
same,Drug uptake,[17],Not Active
same,Activity,[18],Non-Toxic
same,Activity,[19],Non-Toxic
same,Activity,[20],0.08 to 0.14
same,IC50,[21],3.1 µM
same,IC50,[22],2.1 µM
same,Drug uptake,[23],Active
same,Drug uptake,[24],Not Active
same,clearance,[25],7.33 mL/min/kg
same,MRT inf,[26],12.4 h
same,AUCt,[27],3.78 mg/h/L
same,AUC,[28],4550 ng·h/mL
same,Drug uptake,[29],Not Active
same,IC50,[30],0.37 µM
same,half-life,[31],7.81 h
same,Drug uptake,[32],Active
same,Activity,[33],Active
same,Stability,[34],Stable
same,Ratio IC50,[35],235
same,Activity,[36],Non-Toxic
same,Cmax,[37],2180 ng/mL
CCCCCCCNc1cc2[s+]c3cc(N(CC)CC)ccc3nc2c2ccc(C)nc12.[Cl-],Ratio IC50,[1],8.47
same,Ratio IC50,[4],4.6
same,Ratio IC50,[6],3.8
same,IC50,[8],14.4 µM
same,Activity,[9],Active
same,IC50,[11],3.7 µM
same,IC50,[13],1.05 µM
same,Activity,[20],0.08 to 0.14
same,IC50,[21],17.1 µM
same,IC50,[22],8.89 µM
same,IC50,[30],3.8 µM
same,Drug uptake,[32],Active
same,Activity,[33],Active
same,Stability,[34],Stable
CCN(CC)c1ccc2nc3c(cc(N)c4nc(C)ccc43)[s+]c2c1.[Cl-],Ratio IC50,[1],21.9
same,Ratio IC50,[4],3.6
same,Ratio IC50,[6],2.2
same,IC50,[8],1.1 µM
same,Activity,[9],Active
same,IC50,[11],1.8 µM
same,IC50,[13],0.21 µM
same,Activity,[20],0.08 to 0.14
same,IC50,[21],6.5 µM
same,IC50,[22],4.6 µM
same,IC50,[30],0.5 µM
same,Drug uptake,[32],Active
same,Activity,[33],Active
same,Stability,[34],Stable
CN(C)c1ccc2nc3ccc(N(C)C)cc3[s+]c2c1.[Cl-] [METHYLENE BLUE ANHYDROUS],IC50,[13],9.2 µM
same,IC50,[22],> 10 µM
same,Drug uptake,[24],Active
